Measurements reported in paper PMC10794188, “Structure-based development of 3,5-dihydroxybenzoyl-hydrazineylidene as tyrosinase inhibitor; in vitro and in silico study” (Scientific Reports, 2024).
Read-outs that look alike come from different tables or passages of the source.

Columns and labels:
[1] = target: mushroom tyrosinase; conditions: cited from earlier work
[2] = test system: tyrosinase; experiment: Tyrosinase inhibitory assay (colorimetric, L-DOPA substrate); format: biochemical; conditions: for IC50: read-out: IC50 (µM) ± RSD
Method: The tyrosinase inhibitory activities of derivatives were performed according to the previously reported procedures[26],[27]. All the test samples were first dissolved in DMSO at dilution to the required final concentrations. Initially, in a 96-well microplate, 10 µl of test samples were added to 160 µl of phosphate buffer (pH = 6.8), and then 10 µl tyrosinase was added. After the mixture was pre-incubated at 28 °C for 20 min, 20 µl of L-DOPA solution was added. DMSO without test compounds was used as the control, and kojic acid was used as a positive control. After 8 min incubation absorbance of samples was measured at 490 nm. Each assay was conducted as three separate replicates.

[3] = test system: tyrosinase; experiment: Enzyme kinetic study (Lineweaver–Burk, L-DOPA); format: biochemical
Text: The Lineweaver–Burk reciprocal plot was provided by plotting 1/V against 1/[S] at variable concentrations of the L-DOPA.

[4] = test system: skin melanoma cells; parameters: method as in PMID 34140181; conditions: 8 µM; cited from earlier work

Row | SMILES | % inhibition at 100 µM [2] | further results
1 | O=C(/C=C/c1ccc(O)cc1)c1cc(O)cc(O)c1 [A] | – | IC50 [1]: 8.1 µM
2 | O=C(Cn1cc(COc2ccc(C=NNC(=O)c3cc(O)cc(O)c3)cc2)nn1)Nc1ccccc1 [Compound 11a, 2-(4-((4-((2-(3,5-dihydroxybenzoyl)hydrazineylidene)methyl)phenoxy)methyl)-1H-1,2,3-triazol-1-yl)-N-phenylacetamide] | 53.87 ± 1.53% | IC50 [2]: 90.5 µM
3 | O=C(Cn1cc(COc2ccc(C=NNC(=O)c3cc(O)cc(O)c3)cc2)nn1)Nc1ccccc1F [Compound 11b, 2-(4-((4-((2-(3,5-dihydroxybenzoyl)hydrazono)methyl)phenoxy)methyl)-1H-1,2,3-triazol-1-yl)-N-(2-fluorophenyl)acetamide] | 22.99 ± 1.20% | –
4 | O=C(Cn1cc(COc2ccc(C=NNC(=O)c3cc(O)cc(O)c3)cc2)nn1)Nc1ccc(F)cc1 [Compound 11c, 2-(4-((4-((2-(3,5-dihydroxybenzoyl)hydrazono)methyl)phenoxy)methyl)-1H-1,2,3-triazol-1-yl)-N-(4-fluorophenyl)acetamide] | 32.28 ± 2.76% | –
5 | O=C(Cn1cc(COc2ccc(C=NNC(=O)c3cc(O)cc(O)c3)cc2)nn1)Nc1ccc(Cl)cc1 [Compound 11d, N-(4-chlorophenyl)-2-(4-((4-((2-(3,5-dihydroxybenzoyl)hydrazineylidene)methyl)phenoxy)methyl)-1H-1,2,3-triazol-1-yl)Acetamide] | 22.82 ± 0.53% | –
6 | O=C(Cn1cc(COc2ccc(C=NNC(=O)c3cc(O)cc(O)c3)cc2)nn1)Nc1ccc(Br)cc1 [Compound 11e, N-(4-bromophenyl)-2-(4-((4-((2-(3,5-dihydroxybenzoyl)hydrazono)methyl)phenoxy)methyl)-1H-1,2,3-triazol-1-yl)acetamide] | 14.13 ± 2.31% | –
7 | O=C(Cn1cc(COc2ccc(C=NNC(=O)c3cc(O)cc(O)c3)cc2)nn1)Nc1ccc(Cl)cc1Cl [Compound 11f, N-(2,4-dichlorophenyl)-2-(4-((4-((2-(3,5-dihydroxybenzoyl)hydrazineylidene)methyl)phenoxy)methyl)-1H-1,2,3-triazol-1-yl)acetamide] | 19.54 ± 2.48% | –
8 | O=C(Cn1cc(COc2ccc(C=NNC(=O)c3cc(O)cc(O)c3)cc2)nn1)Nc1c(Cl)cccc1Cl [Compound 11g, N-(2,6-dichlorophenyl)-2-(4-((4-((2-(3,5-dihydroxybenzoyl)hydrazineylidene)methyl)phenoxy)methyl)-1H-1,2,3-triazol-1-yl)Acetamide] | 27.87 ± 1.83% | –
9 | O=C(Cn1cc(COc2ccc(C=NNC(=O)c3cc(O)cc(O)c3)cc2)nn1)Nc1ccc([N+](=O)[O-])cc1 [Compound 11h, 2-(4-((4-((2-(3,5-dihydroxybenzoyl)hydrazineylidene)methyl)phenoxy)methyl)-1H-1,2,3-triazol-1-yl)-N-(4-nitrophenyl)Acetamide] | 22.74 ± 2.86% | –
10 | Cc1cc([N+](=O)[O-])ccc1NC(=O)Cn1cc(COc2ccc(C=NNC(=O)c3cc(O)cc(O)c3)cc2)nn1 [Compound 11i, 2-(4-((4-((2-(3,5-dihydroxybenzoyl)hydrazineylidene)methyl)phenoxy)methyl)-1H-1,2,3-triazol-1-yl)-N-(2-methyl-4-nitrophenyl)acetamide] | 15.05 ± 2.29% | –
11 | Cc1ccc(NC(=O)Cn2cc(COc3ccc(C=NNC(=O)c4cc(O)cc(O)c4)cc3)nn2)cc1 [Compound 11j, 2-(4-((4-((2-(3,5-dihydroxybenzoyl)hydrazono)methyl)phenoxy)methyl)-1H-1,2,3-triazol-1-yl)-N-(p-tolyl)acetamide] | 15.22 ± 4.33% | –
12 | Cc1cccc(C)c1NC(=O)Cn1cc(COc2ccc(C=NNC(=O)c3cc(O)cc(O)c3)cc2)nn1 [Compound 11k, 2-(4-((4-((2-(3,5-dihydroxybenzoyl)hydrazineylidene)methyl)phenoxy)methyl)-1H-1,2,3-triazol-1-yl)-N-(2,6-dimethylphenyl)Acetamide] | 38.59 ± 0.74% | –
13 | CCc1ccc(NC(=O)Cn2cc(COc3ccc(C=NNC(=O)c4cc(O)cc(O)c4)cc3)nn2)cc1 [Compound 11l, 2-(4-((4-((2-(3,5-dihydroxybenzoyl)hydrazineylidene)methyl)phenoxy)methyl)-1H-1,2,3-triazol-1-yl)-N-(4-ethylphenyl)acetamide] | 55.52 ± 4.63% | IC50 [2]: 87.5 µM
14 | COc1ccc(NC(=O)Cn2cc(COc3ccc(C=NNC(=O)c4cc(O)cc(O)c4)cc3)nn2)cc1 [Compound 11m, 2-(4-((4-((2-(3,5-dihydroxybenzoyl)hydrazineylidene)methyl)phenoxy)methyl)-1H-1,2,3-triazol-1-yl)-N-(4-methoxyphenyl)acetamide] | 78.81 ± 7.35% | IC50 [2]: 55.4 µM; mode of inhibition ([3]; Lineweaver–Burk plot): competitive; Ki ([3]; secondary plot of Km vs inhibitor concentration, L-DOPA, read-out: dissociation constant Ki): 52.8 µM
15 | O=C(Cn1cc(COc2ccc(C=NNC(=O)c3cc(O)cc(O)c3)cc2)nn1)NCc1ccccc1 [Compound 11n, N-benzyl-2-(4-((4-((2-(3,5-dihydroxybenzoyl)hydrazineylidene)methyl)phenoxy)methyl)-1H-1,2,3-triazol-1-yl)acetamide] | 17.48 ± 1.79% | –
16 | CCOc1cc(/C=N/NC(=O)c2ccc(O)c(OC)c2)ccc1O [Compound C] | – | IC50 [1]: 1.58 µM
17 | O=C(N/N=C/c1ccc(Cl)cc1)c1ccc(O)cc1 [Compound E] | – | IC50 [1]: 7.57 ± 0.01 µM
18 | Clc1ccc(Cn2cc(COc3ccc(-c4nc5ccccc5[nH]4)cc3)nn2)cc1Cl [Compound F] | – | IC50 [1]: 9.42 µM
19 | O=C1NC(=O)C(=Cc2ccc(OCc3cn(Cc4ccccc4Cl)nn3)cc2)C(=O)N1 [Compound G] | – | IC50 [1]: 29.9 µM
20 | NC(=S)N/N=C/c1ccc(OCc2cn(CC(=O)NCc3ccccc3)nn2)cc1 [Compound H] | – | IC50 ([1]; L-DOPA as substrate): 0.17 µM; IC50 ([1]; L-tyrosine as substrate): 0.11 µM; melanin content [4]: 39.8%
21 | CC(=O)c1cccc(NC(=O)COC(=O)/C=C/c2ccc(O)cc2O)c1 [D] | – | IC50 [1]: 0.002 µM
22 | O=c1cc(CO)occ1O [Kojic acid, reference compound] | 23.64 ± 2.56% | –
